The test system of series [1] is Tyrosinase. In words: Measurement of inhibition action against tyrosinase. It is filed as biochemical. As to the method: Tyrosinase was purchased from Sigma Company. The enzyme was dissolved in […]. Sodium phosphate buffer (0.1 M, pH 6.0), a substrate of enzyme and adjusted 1.6 mg/ml of concentration to obtain an enzyme solution. Sample was dissolved in sodium phosphate buffer and the undissolved residue was filtered out. 0.7 ml of the buffer, 0.2 ml of sample and 0.1 ml (15.7 unit/ml) of the enzyme solution were mixed and after 60 seconds, absorbance was measured at 475 nm by spectrophotometer.
By the following equation, inhibition ratio(%) of tyrosinase was calculated.
Inhibition ratio(%) of tyrosinase=[1−(S−B)/C]×100
wherein, • S: Test tube having enzyme and sample, • B: Test tube having sample, • C: Test tube having enzyme.

In series [2] the test system is liver spots of women. In words: Whitening effect of preparation composed of ranunculin, deoxypodophyllotoxin and SB365 on clinical trial. The class given is in vivo, human. The following applies: concluded from compositions with and without SB365. As to the method: Pharmaceutical composition: 10 mg of ranunculin, 50 mg of deoxypodophyllotoxin, and 15 mg of SB365 were mixed well together with the base (19 g) to obtain pharmaceutical composition and the composition was rubbed on the area of liver spots three times a day till the time of curing.
A composition from which SB365 which was not effective on tyrosinase was deleted was used. The composition were administered to five women (F, G, H, I, K) having liver spots.

A short description of series [3]: Water solubility. The class given is physicochemical.

Entries after “also recorded” stand apart in the source; their conditions may differ.

Experimental findings from US20080124287A1, “Cosmetic composition having whitening effect comprising extract of pulsatilla radix as main ingredient” (priority 2002, published 2008) are described below.

For `CC1OC(OC2C(O[C@H]3CC[C@@]4(C)C(CC[C@]5(C)C4CC=C4C6CC(C)(C)CC[C@]6(C(=O)O)CC[C@]45C)[C@]3(C)CO)OCC(OC3OC(CO)C(O)C(O)C3O)C2O)C(O)C(O)C1O` (stereo partly drawn) [SB365, 3-O-α-L-ramnopyranosyl(1→2)-[β-D-glucopyranosyl(1→4)]-α-L-arabinopyranoside], the “effect against tyrosinase (in words)” value in series [1] is “not effective; also recorded: did not inhibit; also recorded: no effect”. Further, in series [2], the “whitening effect in clinical trials” value is listed as “have whitening effect; also recorded: excellent whitening effect”.
In turn, `COc1cc([C@@H]2c3cc4c(cc3C[C@H]3COC(=O)[C@@H]32)OCO4)cc(OC)c1OC` [Deoxypodophyllotoxin] registered an inhibition against tyrosinase in series [1] (at 0.03 μg/ml) of 38%. In addition, the “inhibition of activity of tyrosinase” value in series [1] (at 0.03/g/ml) was 38%. The water solubility entry in series [3] is “very low and low”.
